{"source": "patent US20250026734A1", "about": "(priority 2021, published 2025)", "system": "SARS-CoV-2 strains", "assay_type": "cell-based", "note": "Values joined by “and” are separate entries in the source; they are usually repeats but may differ in a detail not shown here. Identical values can stand only once. Like-named read-outs stand apart in the source and are kept apart here.", "data": [{"smiles": "CCCCn1c(=O)c2ccc(NCCO)cc2c2cc(C(O)(C(F)(F)F)C(F)(F)F)ccc21", "note": "[NR-31]", "values": [{"measurement": "EC50", "setting": "read-out: EC50", "value": "5.12 µM and 3.47 µM and 3.53 µM and 5.28 µM and 3.37 µM and 4.07 µM and 3.62 µM"}, {"measurement": "EC50", "setting": "read-out: EC50 (inhibits cell death induced by SARS-CoV-2 infection by 50%)", "value": 4.4, "unit": "µM"}]}]}
